Experimental data as given in ChEMBL document CHEMBL4610062, “Cytotoxic and non-cytotoxic cardiac glycosides isolated from the combined flowers, leaves, and twigs of Streblus asper” (Bioorg Med Chem, 2020).

Legend:
[1] = tested on: OVCAR-3; experiment: Cytotoxicity against human OVCAR3 cells assessed as inhibition of cell viability incubated for 72 hrs by MTS assay; format: functional, cell-based; conditions: OVCAR-3, 72 h
[2] = Cytotoxicity against human MDA-MB-435 cells assessed as inhibition of cell viability incubated for 72 hrs by MTS assay
[3] = tested on: HT-29; experiment: Cytotoxicity against human HT-29 cells assessed as inhibition of cell viability incubated for 72 hrs by MTS assay; format: functional, cell-based; conditions: HT-29, 72 h
[4] = Inhibition of Sodium/potassium-transporting ATPase in porcine cerebral cortex using ATP as substrate incubated for 15 mins by ADP-Glo Max Assay; set-up: species or system Sus scrofa

| SMILES | IC50 [1] | IC50 [2] | IC50 [3] | IC50 [4] |
| --- | --- | --- | --- | --- |
| CO[C@H]1[C@H](O[C@H]2CC[C@]3(C=O)[C@H]4CC[C@]5(C)[C@](O)(C6=CC(=O)OC6)CC[C@]5(O)[C@@H]4CC[C@]3(O)C2)O[C@H](C)[C@H](O)[C@@H]1OC | > 20 µM | > 20 µM | > 20 µM | 232 µM |
| CO[C@H]1[C@H](O[C@H]2CC[C@]3(C=O)[C@H]4CC[C@]5(C)[C@@H]6CC[C@]5(O[C@H]5OC(=O)C[C@H]56)[C@@H]4CC[C@]3(O)C2)O[C@H](C)[C@H](O)[C@@H]1OC | > 20 µM | > 20 µM | > 20 µM |  |
| C[C@H]1O[C@@H](O[C@H]2[C@@H](O)C[C@H](O[C@H]3[C@@H](O)C[C@H](O[C@H]4CC[C@@]5(C)[C@H](CC[C@@H]6[C@@H]5CC[C@]5(C)[C@@H](C7=CC(=O)OC7)CC[C@]65O)C4)O[C@@H]3C)O[C@@H]2C)C[C@H](O)[C@@H]1O [DIGITOXIN] |  |  |  | 0.127 µM |
| CC(=O)O[C@H]1C(=O)[C@@]2(C)[C@H]([C@H](OC(=O)c3ccccc3)[C@]3(O)C[C@H](OC(=O)[C@H](O)[C@@H](NC(=O)c4ccccc4)c4ccccc4)C(C)=C1C3(C)C)[C@]1(OC(C)=O)CO[C@@H]1C[C@@H]2O [PACLITAXEL] |  | 0.0015 µM |  |  |
